# Results reported in paper PMC10993450, “New benzimidazole derivative compounds with in vitro fasciolicidal properties” (Parasites & Vectors, 2024).
# Several values for one entry are separate records, joined by “and”; a condition that tells them apart may be missing. Equal entries are not always repeated. Entries after “also recorded” stand apart in the source; their conditions may differ.
# System: Fasciola hepatica adults (ABZ-resistant isolate)
# Assay: Adult viability test (AVT), motility inhibition
# Assay type: cell-based
# Settings: 10 µM; ABZ-resistant isolate
# Experimental: The adult viability test was based on a previous study carried out by Kirchhofer et al. with minor modifications. In brief, adult F. hepatica flukes were recovered from bile ducts of infected sheep with the resistant isolate. Flukes were quickly washed with 0.9% (w/v) NaCl and placed in six-well plates (Costar, Spain) with RPMI 1640 culture medium (Sigma-Aldrich®, Spain) supplemented with antibiotics (50 μg/mL streptomycin and 50 IU/mL penicillin; Sigma-Aldrich®, Spain) and 80 μg/mL of a hemin solution at 37 °C.
# To monitor the anthelmintic effect of BZDs and the commercial drug ABZ, two flukes per well were incubated up to 72 h at a final concentration of 10 µM. DMSO at 0.5% was used as negative control. The individual movement of each fluke was examined using an inverted microscope at 24, 48, and 72 h. The activity of the compounds was estimated as motility inhibition, using a scale of fluke viability ranging from 3 (normal movements) to 0 (death, no movement observed for 2 min). All tests were repeated at least twice at different days.
# Additionally, the percentage of motility inhibition for each compound was calculated from […] to 48 and 72 h after treatment using the following formula: 100 × (mean of the motility score of BZD at 24 h − mean of the motility score of BZD at 48 or 72 h)/(mean of the motility score of BZD at 24 h).
# For the AVT, statistical analysis was performed using GraphPad Prism version 8.0.2. The normality of the motility inhibition scores was assessed using the Shapiro–Wilk test. Then, differences among scores at the three time points (24, 48, and 72 h) were evaluated using the Friedman test. In cases where significant differences were observed, post hoc analysis was conducted using the Nemenyi test for multiple comparisons. Comparisons with a P value < 0.05 were considered statistically significant.
row,SMILES,Motility inhibition of adults after 72 h of incubation (in words; significance vs 24 h)
1,"CCC[S+]([O-])c1ccc2[nH]c(NC(=O)OC)nc2c1 (centres unmarked) [ABZSO, albendazole sulfoxide, reference compound]","nor those with ABZSO or BZD46, exhibited any significant motility inhibition; also recorded: no evidence of inhibition; also recorded: did not produce any motility alteration"

# Same assay, conditions: Fasciola hepatica, read-out: % Adult motility inhibition 48 h
row,SMILES,inhibition at 10 µM
1,"CCC[S+]([O-])c1ccc2[nH]c(NC(=O)OC)nc2c1 (centres unmarked) [ABZSO, albendazole sulfoxide, reference compound]",25%

# Same assay, conditions: Fasciola hepatica, read-out: % Adult motility inhibition 72 h
row,SMILES,inhibition at 10 µM
1,"CCC[S+]([O-])c1ccc2[nH]c(NC(=O)OC)nc2c1 (centres unmarked) [ABZSO, albendazole sulfoxide, reference compound]",25%

# System: Fasciola hepatica eggs (ABZ-susceptible isolate)
# Assay: Egg hatch test (EHT), ABZ-susceptible isolates
# Assay type: cell-based
# Settings: 10 µM; ABZ-susceptible isolate; mean ± SEM
# Experimental: Eggs were recovered from gallbladders of cattle naturally infected with F. hepatica at the municipal slaughterhouse of León (Spain). For this, the bile of the gallbladders was filtered through sieves of different diameter size pores (500, 150, and 20 µm) using pressurized tap water. Eggs retained on the 20 µm pore size sieve were collected and stored at 4 °C in darkness until required within a maximum period of 2 months.
# The susceptibility of the isolates to ABZ was confirmed by the egg hatch test (EHT) using an ABZ discriminant dose (DD) of 0.5 µM [23]. The technique is described in more detail below.
# The in vitro anthelmintic activity of a total of 70 BZDs was initially tested on F. hepatica eggs recovered from gallbladders of cattle naturally infected with ABZ-susceptible isolates. The first screening was performed using a fixed concentration of 50 µM. […] Therefore, only BZDs with ovicidal activities over 80% progressed to the next assays at 10 µM. […] At this last concentration, the ovicidal effect of ABZ, ABZSO, and OXF was also evaluated.
# (§1) The in vitro EHT described in the current study was based on previous studies. Briefly, 100–120 eggs were incubated in 990 µL of water and 10 μL of each working solution at 25 °C in the dark for a period of 12 h. After incubation, eggs were gently washed with tap water three times to facilitate compound removal and kept in darkness at 25 °C for 14 days. After this period, eggs were exposed to light for 2 h to stimulate the hatching of eggs. Then, hatched and unhatched eggs were evaluated and counted using an optical microscope. The term “hatched eggs” includes both hatched and embryonated eggs. Negative control eggs were incubated with 10 μL of DMSO in 990 μL of water, reaching a maximum DMSO concentration of 1% (v/v), while ABZ at 0.5 µM was used as positive control. Each compound at a specific concentration was tested in triplicate in the same EHT and repeated at least two different days.
# With the aim to characterize the susceptibility of isolates from naturally infected cattle, the drug used in the EHT was ABZ, tested at a discriminant dose of 0.5 μM. Drug susceptibility is assumed when the ovicidal activity is over 70%, resistance when is lower than 40%, and a suspicion of resistance when activity is between these values at 0.5 μM.
# (§2) The efficacy of each compound and drug was calculated as its ovicidal activity following the formula below: Ovicidal activity%=100×%eggs hatched in negative control-%egg hatched after drug incubation/%egg hatched in control.
row,SMILES,% Ovicidal activity
1,Cc1ccc2[nH]c(-c3ccc(Cl)cc3)nc2c1 [BZD05],around 50%
2,COc1ccc(-c2nc3cc(OC)ccc3[nH]2)cc1 [BZD20],24.59 ± 05.71%

# Same assay, conditions: 50 µM; ABZ-susceptible isolate; mean ± SEM
row,SMILES,% Ovicidal activity
1,COc1ccc(-c2nc3ccccc3[nH]2)cc1 [BZD01],20.07 ± 9.32%
2,Clc1ccc(-c2nc3ccccc3[nH]2)cc1 [BZD02],09.55 ± 5.68%
3,Brc1ccc(-c2nc3ccccc3[nH]2)cc1 [BZD03],01.93 ± 1.11%
4,Cc1ccc2[nH]c(-c3ccc(Cl)cc3)nc2c1 [BZD05],35.59 ± 9.00%
5,Cc1ccc(C)c(-c2nc3cc(C)ccc3[nH]2)c1 [BZD06],02.26 ± 1.30% and 04.63 ± 2.27%
6,COc1ccc(-c2nc3cc(C)ccc3[nH]2)cc1[N+](=O)[O-] [BZD07],07.13 ± 3.45%
7,O=[N+]([O-])c1ccc(-c2nc3cc(Cl)ccc3[nH]2)cc1 [BZD10],23.55 ± 8.06%
8,Cc1ccc(C)c(-c2nc3cc(Cl)ccc3[nH]2)c1 [BZD11],03.28 ± 1.45%
9,COc1ccc(-c2nc3cc(Cl)ccc3[nH]2)cc1[N+](=O)[O-] [BZD12],00.55 ± 9.45%
10,COc1ccc(-c2nc3cc(Cl)ccc3[nH]2)cc1N [BZD13],04.40 ± 1.38%
11,COc1ccc(-c2nc3cc([N+](=O)[O-])ccc3[nH]2)cc1 [BZD14],15.55 ± 7.35%
12,Cc1ccc(C)c(-c2nc3cc([N+](=O)[O-])ccc3[nH]2)c1 [BZD16],00.33 ± 0.33%
13,COc1ccc(-c2nc3cc([N+](=O)[O-])ccc3[nH]2)cc1[N+](=O)[O-] [BZD17],00.00 ± 0.00%
14,COc1ccc(-c2nc3cc(N)ccc3[nH]2)cc1 [BZD18],02.82 ± 1.42%
15,COc1ccc(-c2nc3cc(NC(=O)c4ccccn4)ccc3[nH]2)cc1 [BZD19],13.61 ± 3.64%
16,COc1ccc2[nH]c(-c3ccc(Cl)cc3)nc2c1 [BZD21],06.88 ± 6.88%
17,COc1ccc2nc(-c3ccc(Br)cc3)[nH]c2c1 [BZD22],67.47 ± 5.64%
18,COc1ccc(-c2nc3cc(C)c(C)cc3[nH]2)cc1 [BZD23],59.08 ± 3.79%
19,COc1ccc(-c2nc3cc(Cl)c(Cl)cc3[nH]2)cc1 [BZD24],16.09 ± 6.50%
20,Cc1ccc(S(=O)(=O)Nc2nc3cc(C)ccc3[nH]2)cc1 [BZD25],3.94 ± 1.37%
21,Cc1ccc2[nH]c(NS(=O)(=O)c3ccc4ccccc4c3)nc2c1 [BZD26],2.23 ± 0.99%
22,COc1ccc(CNc2nc3cc(C)ccc3[nH]2)c(OC)c1OC [BZD28],01.02 ± 0.62%
23,Cc1ccc2[nH]c(NCc3ccc4ccccc4c3)nc2c1 [BZD29],04.65 ± 1.98%

row,SMILES,% Ovicidal activity
1,COc1ccc(CNc2nc3cc(Cl)ccc3[nH]2)cc1 [BZD33],05.52 ± 2.49%
2,COc1cc(CNc2nc3cc(Cl)ccc3[nH]2)cc(OC)c1OC [BZD34],00.39 ± 0.38%
3,Clc1ccc2[nH]c(NCc3ccco3)nc2c1 [BZD35],37.65 ± 13.55%
4,COc1ccc2[nH]c(NCc3ccccc3)nc2c1 [BZD36],70.94 ± 2.32%
5,COc1ccc(CNc2nc3cc(OC)ccc3[nH]2)cc1 [BZD37],08.66 ± 1.86%
6,COc1ccc2[nH]c(NCc3cccs3)nc2c1 [BZD40],17.73 ± 5.12%
7,COc1ccc(CNc2nc3cc(C)c(C)cc3[nH]2)cc1 [BZD41],05.76 ± 3.12%
8,COc1cc(CNc2nc3cc(C)c(C)cc3[nH]2)cc(OC)c1OC [BZD42],10.73 ± 3.26%
9,Clc1cc2nc(NCc3ccccc3)[nH]c2cc1Cl [BZD43],55.36 ± 3.12%
10,COc1cc(CNc2nc3cc(Cl)c(Cl)cc3[nH]2)cc(OC)c1OC [BZD45],00.91 ± 0.61%
11,COc1ccc(C(=O)Nc2nc3cc(C)ccc3[nH]2)cc1 [BZD48],09.72 ± 2.50%
12,Cc1ccc2[nH]c(NC(=O)c3cc([N+](=O)[O-])ccc3Cl)nc2c1 [BZD50],07.62 ± 2.71%
13,COc1cc(OC)cc(C(=O)Nc2nc3cc(C)ccc3[nH]2)c1 [BZD51],05.05 ± 2.51%
14,COc1cc(C(=O)Nc2nc3cc(C)ccc3[nH]2)cc(OC)c1OC [BZD52],02.50 ± 1.26%
15,Cc1ccc2[nH]c(NC(=O)Cc3ccc4ccccc4c3)nc2c1 [BZD53],01.07 ± 0.62%
16,Cc1ccc2[nH]c(NC(=O)Cc3cccs3)nc2c1 [BZD54],07.20 ± 3.47%
17,COc1ccc(C(=O)Nc2nc3cc(Cl)ccc3[nH]2)cc1 [BZD57],60.39 ± 10.70%
18,COc1ccc(C(=O)Nc2nc3cc(OC)ccc3[nH]2)cc1 [BZD60],01.08 ± 0.79%
19,Cc1cc2nc(NC(=O)c3cccc(Cl)c3)[nH]c2cc1C [BZD65],01.61 ± 0.82%
20,COc1ccc(C(=O)Nc2nc3cc(C)c(C)cc3[nH]2)cc1 [BZD66],00.26 ± 0.25%
21,O=C(Nc1nc2cc(Cl)c(Cl)cc2[nH]1)c1ccccc1 [BZD67],03.33 ± 2.51%
22,COc1ccc(C(=O)Nc2nc3cc(Cl)c(Cl)cc3[nH]2)cc1 [BZD70],02.75 ± 1.16%

# Same assay, conditions: Fasciola hepatica, 5 µM; mean ± SEM; read-out: % Ovicidal activity susceptible isolate
row,SMILES,killing at 5 µM
1,"CCC[S+]([O-])c1ccc2[nH]c(NC(=O)OC)nc2c1 (centres unmarked) [ABZSO, albendazole sulfoxide, reference compound]",> 98%
2,"COC(=O)Nc1nc2ccc([S+]([O-])c3ccccc3)cc2[nH]1 (centres unmarked) [OXF, oxfendazole, reference compound]",> 98%

# System: Fasciola hepatica eggs (ABZ-resistant isolate)
# Assay: Egg hatch test (EHT), ABZ-resistant isolate
# Assay type: cell-based
# Settings: 5 µM; mean ± SEM
# Description: F. hepatica eggs were recovered after washing the gallbladder of three naturally infected sheep belonging to a flock suspected to be resistant to ABZ. From these eggs, metacercariae were produced at the Centro de Investigaciones de Mabegondo (AGACAL, Xunta de Galicia, Spain) following a previous protocol. These metacercariae were used to infect eight sheep with a dose of 200 metacercariae. The infection was confirmed individually 3 months after the infection by coprological analysis using a sedimentation technique. At that point, sheep were randomly located in two groups of four animals: one treated with a therapeutic dose of ABZ (7.5 mg/kg) and the other one only with water, as control group. To assess the efficacy of ABZ in this isolate, all sheep were humanely euthanized by an intravenous administration of a lethal dose of sodium pentobarbital (Dolethal®, Vetoquinol, Spain) 2 weeks later for fluke recovery and counting. Afterwards, the in vivo efficacy of ABZ was calculated as the percentage of adult worm reduction compared with the untreated control. Additionally, the number of eggs per gram of feces (EPG) was estimated on the treatment day (mentioned as day 0) and 14 days later to determine drug efficacy by means of the fecal egg count reduction test (FECRT).
# During the necropsy, gallbladders from sheep belonging to the untreated group were taken to collect the eggs and carry out the in vitro EHT, while flukes collected from livers were used to conduct the adult viability test (AVT).
# Those BZDs with an activity higher than 80% at a concentration of 10 µM were also screened on eggs and adults from the ABZ resistant isolate.
# as §1, §2
row,SMILES,% Ovicidal activity resistant isolate
1,"CCC[S+]([O-])c1ccc2[nH]c(NC(=O)OC)nc2c1 (centres unmarked) [ABZSO, albendazole sulfoxide, reference compound]",26% and 26.12 ± 11.87%
2,"COC(=O)Nc1nc2ccc([S+]([O-])c3ccccc3)cc2[nH]1 (centres unmarked) [OXF, oxfendazole, reference compound]",3% and 03.41 ± 02.08%

# Same assay, conditions: 10 µM as printed
row,SMILES,Ovicidal activity on the resistant isolate
1,"CCC[S+]([O-])c1ccc2[nH]c(NC(=O)OC)nc2c1 (centres unmarked) [ABZSO, albendazole sulfoxide, reference compound]",26%
2,"COC(=O)Nc1nc2ccc([S+]([O-])c3ccccc3)cc2[nH]1 (centres unmarked) [OXF, oxfendazole, reference compound]",3.5%
